Measured values from patent US20160176924A1, “MODIFIED PEPTIDES AS POTENT INHIBITORS OF THE PSD-95/NMDA RECEPTOR INTERACTION” (priority 2008, published 2016).
Like-named read-outs stand apart in the source and are kept apart here. Each block holds one molecule with its values, some of them ahead of it. Numbered stars: 1 amine (or outer) side, 2 acyl side, 3 side chain; on linkers, the order of the positions; unused ones are H or OH. Bridge positions count the residues as written; N and C are the ends. Square brackets hold non-standard residues; d marks the D form. Ends that are not written are not given here. Peptide text beside a SMILES is read from it. I, II: the chains in the order shown. CO(CH2CH2O)9CH2CH2CO = O=C(CCOCCOCCOCCOCCOCCOCCOCCOCCOCCC(=O)[*:2])[*:1]; NMeE = CN[C@@H](CCC(=O)O)C(=O)O

How the values were obtained:
PDZ2 of PSD-95 = target: T1, PDZ2 of PSD-95 (Homo sapiens, UniProt P78352); assay: FP heterologous competition binding assay; conditions: for affinity to PDZ2, in words: FP assay; for Ki: FP competition, mean ± SEM, NA = no activity/affinity
T1 construct: PDZ2 (residues 155-249); made in house; host or cells: E. coli BL21-DE3 pLysS
Description: (§1) Determined IC50 values may be converted to Ki values.^5 Suitable fluorophores include either 5-FAM or Cy5, which may be coupled to a tripeptide (KSG or CSG) linker attached to the N-terminus of the undecapeptide, to give 5-FAM-NR2B, Cy5-NR2B, 5-FAM-CRIPT and Cy5-CRIPT. The 5-FAM fluorophore may be attached to the undecapeptides by coupling with HATU. The Cy5 fluorophore may be conjugated to the undecapeptides by coupling Cy5-maleimide to the cysteine side chain of the tripeptide sequence CSG attached to the N-terminus of the peptide, as detailed in the Methodology section.
(§2) To measure the affinities between non-fluorescent peptides and PDZ domains, heterologous competition bindings assay were performed. This was done by adding increasing concentrations of peptide to a fixed concentration of Cy5-NR2B, 5-FAM-NR2B, Cy5-CRIPT or 5-FAM-CRIPT (50 nM) and PDZ (20 μM for PDZ1, 3 μM for PDZ2 and 1-2 and 5 μM for PDZ3) in the same TBS buffer and conditions as described above. FP values were then fitted to the general equation: Y=Bottom+(Top−Bottom)/[1[…](10̂^X-logIC50)], where X is the logarithmic value of peptide concentration. Hereby the IC50 value was obtained, which is used to calculate the theoretical competitive inhibition constant, Ki.^5
(§3) A convenient and reliable way to examine interactions between peptide analogues and PDZ domains is by using a fluorescence polarization (FP) assay. The three PDZ domains, PDZ1-3, of PSD-95 were expressed individually as set out above, while PDZ1-2 was also expressed as a tandem construct. […] IC50 values were then converted to Ki values.^5

PDZ1 of PSD-95 = target: T2, PDZ1 of PSD-95 (Homo sapiens, UniProt P78352); assay: FP heterologous competition binding assay; conditions: for Ki: FP competition, mean ± SEM, NA = no activity/affinity
T2 construct: PSD-95 PDZ1 (residues 61-151); made in house; host or cells: E. coli BL21-DE3 pLysS
Description: as §1, §2, §3

PDZ3 of PSD-95 = target: T3, PDZ3 of PSD-95 (Homo sapiens, UniProt P78352); assay: FP heterologous competition binding assay; conditions: FP competition; mean ± SEM; NA = no activity/affinity
T3 construct: PDZ3 (residues 309-401); made in house; host or cells: E. coli BL21-DE3 pLysS
Description: as §1, §2, §3

PDZ1-2 tandem of PSD-95 = target: T4, PDZ1-2 tandem of PSD-95 (Homo sapiens, UniProt P78352); assay: FP heterologous competition binding assay; conditions: mean ± SEM
T4 construct: PDZ1-2 (residues 61-249) tandem; made in house; host or cells: E. coli BL21-DE3 pLysS
Description: as §1, §2, §3

[1] = Human blood plasma stability assay; type: in vitro ADME
Method: In this assay, the half-life (T1/2) of a compound in blood plasma is measured in vitro, whereby its susceptibility to degradation by proteases, peptidases and general plasma contents is quantified.
Compounds of interest were dissolved in human blood plasma (270 μl; 3H Biomedical, Sweden, cat no 1300-1-P50) to a concentration of 0.25 mM (30 μL of 2.5 mM) and incubated at 37° C. Aliquots (30 μl) were removed at various time intervals (0, 5, 10, 20, 40, 80, 160, 320, 960, 1280, 2550, 4560 and 7240 min) and quenched with 60 μL trichloroacetic acid (aq., 5%). The aliquots were vortexed, and incubated for at least 15 min, at 4° C. prior to centrifugation at 18,000 g for 2 min and the supernatant was analyzed by RP-HPLC to quantify the remaining compound (absorbance at 218 nm).

[2] = human, plasma, Blood plasma half life (T1/2)

- affinity to PDZ2, in words (PDZ2 of PSD-95): only slightly less potent
- fold increase in affinity (more potent) compared to NR2B peptide (1), PDZ1 (PDZ1 of PSD-95): ca. 3 fold
Molecule: EMeTQV ([NMeE]TQV) [Compound 39]

- Ki (PDZ2 of PSD-95): 22 ± 0.92 µM
- Ki (PDZ3 of PSD-95): 260 ± 20 µM
- Ki (PDZ1 of PSD-95): 29 ± 1.6 µM
Molecule: CC(C)[C@H](NC(=O)[C@H](C)NC(=O)[C@@H](NC(=O)[C@@H](N)CCC(=O)O)[C@@H](C)O)C(=O)O [ETAV (51), ETAV]

- Ki (PDZ1-2 tandem of PSD-95): 1 ± 0.05 µM
Molecule: CC(C)[C@H](NC(=O)[C@H](CC(=O)O)NC(=O)[C@H](CO)NC(=O)[C@H](CCC(=O)O)NC(=O)CCOCCOCCOCCOCCOCCOCCOCCOCCOCCC(=O)N[C@@H](CCC(=O)O)C(=O)N[C@@H](CO)C(=O)N[C@@H](CC(=O)O)C(=O)N[C@H](C(=O)O)C(C)C)C(=O)O [Compound 85] (I: ESDV-OH / II: ESDV-OH; linker I:N-II:N via CO(CH2CH2O)9CH2CH2CO; C-terminus assumed)

- Ki (PDZ3 of PSD-95): ≥ 400 µM
Molecule: CC(C)[C@H](NC(=O)[C@H](C)NC(=O)[C@@H](NC(=O)[C@H](C)N)[C@@H](C)O)C(=O)O [ATAV (68), ATAV] (H-ATAV-OH; C-terminus assumed)

- half-life [1, 2]: > 133 h
Molecule: CC[C@H](C)[C@H](NC(=O)CCOCCOCCOCCOCCOCCC(=O)N[C@H](C(=O)N[C@@H](C)C(=O)N[C@H](C(=O)N(C)[C@@H](C)C(=O)N[C@H](C(=O)O)C(C)C)[C@@H](C)O)[C@@H](C)CC)C(=O)N[C@@H](C)C(=O)N[C@H](C(=O)N(C)[C@@H](C)C(=O)N[C@H](C(=O)O)C(C)C)[C@@H](C)O [(IATAMeV)2PEG4 (90), (IATAMeV)2PEG4]
- degradation in human blood plasma, in words [1]: no significant degradation could be detected over a time period of 6 days

- Ki (PDZ2 of PSD-95): 3.1 ± 0.31 µM
- Ki (PDZ1 of PSD-95): 2.1 ± 0.35 µM
Molecule: CC(C)[C@H](NC(=O)[C@H](C)NC(=O)[C@@H](NC(=O)[C@H](CCC(=O)O)NCCCc1ccccc1)C(C)O)C(=O)O (stereo partly drawn) [Compound 60, N-Phenylpropyl-ETAV]

- half-life at […] [1, 2]: > 133 h
- Ki (PDZ2 of PSD-95): 2.6 ± 0.13 µM
- Ki (PDZ1-2 tandem of PSD-95): ~0.1 µM
Molecule: CC[C@H](C)[C@H](NC(=O)CCOCCOCCOCCOCCOCCOCCOCCOCCOCCC(=O)N[C@H](C(=O)N[C@@H](CCC(=O)O)C(=O)N[C@@H](CO)C(=O)N[C@@H](CC(=O)O)C(=O)N[C@H](C(=O)O)C(C)C)[C@@H](C)CC)C(=O)N[C@@H](CCC(=O)O)C(=O)N[C@@H](CO)C(=O)N[C@@H](CC(=O)O)C(=O)N[C@H](C(=O)O)C(C)C [(IESDV)2PEG8 (76), (IESDV)2PEG8]
- degradation in human blood plasma, in words [1]: no significant degradation could be detected over a time period of 6 days

- half-life at […] [1, 2]: 2.05 h
- Ki (PDZ2 of PSD-95): 25 ± 0.88 µM
- Ki (PDZ1-2 tandem of PSD-95): 1.1 ± 0.07 µM
Molecule: CC[C@H](C)[C@H](NC(=O)CCOCCOCCOCCOCCOCCC(=O)N[C@H](C(=O)N[C@@H](C)C(=O)N[C@H](C(=O)N[C@@H](C)C(=O)N[C@H](C(=O)O)C(C)C)[C@@H](C)O)[C@@H](C)CC)C(=O)N[C@@H](C)C(=O)N[C@H](C(=O)N[C@@H](C)C(=O)N[C@H](C(=O)O)C(C)C)[C@@H](C)O [(IATAV)2PEG4 (88), (IATAV)2PEG4]

- Ki (PDZ1 of PSD-95): 21 ± 1.1 µM
Molecule: CC(C)[C@H](NC(=O)[C@H](C)NC(=O)[C@@H](NC(=O)[C@H](CCC(N)=O)NCCC1CCCCC1)[C@@H](C)O)C(=O)O [QTAV (72)]

Molecule: YGRKKRRQRRRKLSSIESDV [Tat-NR2B (3), reference compound] [listing 1 of 2 here]
- Ki (PDZ1-2 tandem of PSD-95): 9.8 ± 0.35 µM

- affinity to PDZ2, in words (PDZ2 of PSD-95): only slightly less potent
- fold increase in affinity (more potent) compared to NR2B peptide (1), PDZ1 (PDZ1 of PSD-95): ca. 3 fold
Molecule: EMeTDV ([NMeE]TDV) [Compound 36]

Molecule: YGRKKRRQRRRKLSSIESDV [Tat-NR2B (3), reference compound] [listing 2 of 2 here]
- half-life at […] ([1]; human blood plasma, 37° C., 0.25 mM, read-out: Blood plasma half life (T1/2)): 24.5 h

- half-life at […] [1, 2]: 0.283 to 0.917 h
Molecule: CC(C)[C@H](NC(=O)[C@H](CC(=O)O)NC(=O)[C@H](CO)NC(=O)[C@@H](N)CCC(N)=O)C(=O)O [Compound 29] (H-QSDV-OH)
